pIC50: −log10 of the molar value. Where a name gives a salt, the structure may show the parent alone.

Sequence of acetylcholinesterase (P22303 32-614): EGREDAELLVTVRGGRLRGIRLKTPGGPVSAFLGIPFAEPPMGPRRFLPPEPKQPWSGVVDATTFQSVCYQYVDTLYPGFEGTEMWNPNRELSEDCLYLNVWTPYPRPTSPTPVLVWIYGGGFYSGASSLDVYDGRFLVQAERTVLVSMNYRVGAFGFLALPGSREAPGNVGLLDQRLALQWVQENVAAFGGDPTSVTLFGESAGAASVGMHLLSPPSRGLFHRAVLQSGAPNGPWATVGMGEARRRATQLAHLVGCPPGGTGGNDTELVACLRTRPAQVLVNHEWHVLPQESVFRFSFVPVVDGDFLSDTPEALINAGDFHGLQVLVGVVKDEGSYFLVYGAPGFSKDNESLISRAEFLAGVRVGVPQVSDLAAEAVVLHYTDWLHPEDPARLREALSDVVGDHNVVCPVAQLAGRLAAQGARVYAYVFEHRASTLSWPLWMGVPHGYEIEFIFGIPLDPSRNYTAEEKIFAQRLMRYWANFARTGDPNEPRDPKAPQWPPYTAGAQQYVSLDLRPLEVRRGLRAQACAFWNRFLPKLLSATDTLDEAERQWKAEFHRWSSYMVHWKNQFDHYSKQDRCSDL

The first assay deals with mice. The assay can be described thus: Dark Avoidance Assay (reversal of scopolamine induced memory deficit). The format is in vivo. The following applies: 0.16 mg/kg body weight, retested 24 hours later. As to the method: This utility can also be ascertained by determining the ability of these compounds to restore cholinergically deficient memory in the Dark Avoidance Assay. In this assay mice are tested for their ability to remember an unpleasant stimulus for a period of 24 hours. A mouse is placed in a chamber that contains a dark compartment; a strong incadescent light drives it to the dark compartment, where an electric shock is administered through metal plates on the floor. The animal is removed from the testing apparatus and tested again, 24 hours later, for the ability to remember the electric shock.
If scopolamine, an anticholinergic that is known to cause memory impairment, is administered before an animal's initial exposure to the test chamber, the animal re-enters the dark compartment shortly after being placed in the test chamber 24 hours later. This effect of scopolamine is blocked by an active test compound, resulting in a greater interval before re-entry into the dark compartment.
The results for an active compound are expressed as the percent of a group of animals in which the effect of scopolamine is blocked, as manifested by an increased interval between being placed in the test chamber and re-entering the dark compartment.
`Nc1c2c(nc3ccccc13)CCCC2N1CCCCC1` (stereo not drawn) [1-(1-Piperidinyl)-1,2,3,4-tetrahydro-9-acridinamine]: the “% of animals with scopolamine induced memory deficit reversal” value is recorded as 13%.

Staying with this assay, now noted: 0.31 mg/kg body weight, retested 24 hours later.
Turning to `CCCNC1CCCc2nc3ccccc3c(N)c21` (stereo not drawn) [N1 -Propyl-1,2,3,4-tetrahydro-1,9-acridinediamine], the “% of animals with scopolamine induced memory deficit reversal” value is listed as 20%. Same read-out and setting: with `CNC(=O)Oc1ccc2c(c1)[C@]1(C)CCN(C)[C@@H]1N2C` [Physostigmine, reference compound] the figure was 20%.

A further assay addresses acetylcholinesterase (Homo sapiens, UniProt P22303). As to the kind of experiment: Cholinesterase Inhibition Assay (photometric method of Ellman et al.). It is filed as biochemical.
Settings: not given
(In general: DTNB colorimetry detects thiols as they appear.)
As a reminder, the pIC50 is −log10 of the IC50, conventionally taken in molar units. Read a high pIC50 as a small IC50. `Nc1c2c(nc3ccccc13)CCCC2N1CCCCC1` (stereo not drawn) [1-(1-Piperidinyl)-1,2,3,4-tetrahydro-9-acridinamine] had a negative logarithm of the IC50 (pIC50) of 5.08. Take `Nc1c2c(nc3ccccc13)CCCC2N1CCCC1` (stereo not drawn) [1-(1-Pyrrolidinyl)-1,2,3,4-tetrahydro-9-acridinamine]: the pIC50 is 4.74. Still for that read-out and setting: as for `CN1CCN(C2CCCc3nc4ccccc4c(N)c32)CC1` (stereo not drawn) [1-(4-Methyl-1-piperazinyl)-1,2,3,4-tetrahydro-9-acridinamine], the figure is less than 3.00. Still for that read-out and setting: with `Nc1c2c(nc3ccccc13)CCCC2N1CCOCC1` (stereo not drawn) [1-(4-Morpholinyl)-1,2,3,4-tetrahydro-9-acridinamine] the figure was less than 3.00. Same read-out and setting: as for `Nc1c2c(nc3ccccc13)CCCC2N1CCN(c2ccccc2)CC1` (stereo not drawn) [1-(4-Phenyl-1-piperazinyl)-1,2,3,4-tetrahydro-9-acridinamine, maleate], the figure is less than 3.00.

The compound `[N-]=[N+]=NC1CCCc2nc3ccccc3c(N)c21` (stereo not drawn) [1-Azido-1,2,3,4-tetrahydro-9-acridinamine, maleate] showed a pIC50 of 4.92. In turn, `Nc1c2c(nc3ccccc13)CCCC2NCc1ccccc1` (stereo not drawn) [N1 -Benzyl-1,2,3,4-tetrahydro-1,9-acridinediamine] had a negative-log IC50 (pIC50) of 4.70. As for `CCCCNC1CCCc2nc3ccccc3c(N)c21` (stereo not drawn) [N1 -Butyl-1,2,3,4-tetrahydro-1,9-acridinediamine], the pIC50 was 4.31. This pIC50 lies 0.39 log units lower than the previous one. In the case of `CCNC1CCCc2nc3ccccc3c(N)c21` (stereo not drawn) [N1 -Ethyl-1,2,3,4-tetrahydrol, 9-acridinediamine, fumarate, hemi-hydrate], the negative logarithm of the IC50 (pIC50) is 5.32. This pIC50 lies 1.01 log units higher than the previous one.

`CCCNC1CCCc2nc3ccccc3c(N)c21` (stereo not drawn) [N1 -Propyl-1,2,3,4-tetrahydro-1,9-acridinediamine] had a pIC50 of 4.89. For the compound `Nc1c2c(nc3ccccc13)CCCC2NCCc1ccccc1` (stereo not drawn) [N1-(2-Phenylethyl)-1,2,3,4-tetrahydro-1,9-acridinediamine], the pIC50 was 4.72. Still for that read-out and setting: with `COc1ccc(CNC2CCCc3nc4ccccc4c(N)c32)cc1OC` (stereo not drawn) [N1-(3,4-Dimethoxybenzyl)-1,2,3,4-tetrahydro-1,9-acridinediamine] the figure was 4.41.

(Values after patent US4868177A, “1,2,3,4-tetrahydro-1,9-acridinediamines, pharmaceutical compositions and use” (priority 1988, dated 1989).)
